Assay results reported in the supplement of paper PMC10307832.

How the values were obtained:
Selumetinib + Foretinib = compound: Cn1cnc2c(F)c(Nc3ccc(Br)cc3Cl)c(C(=O)NOCCO)cc21 [Selumetinib] + COc1cc2c(Oc3ccc(NC(=O)C4(C(=O)Nc5ccc(F)cc5)CC4)cc3F)ccnc2cc1OCCCN1CCOCC1 [Foretinib] (partner 0.25 µM); experiment: relative viability (nuclei count vs DMSO), 5 days (fraction); higher = more cells survive
Outline: (§1)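 Relative viability equals treated-well nuclei counts divided by vehicle-well nuclei counts. Counts came from 4× images of lung cancer cell lines grown in 1536-well plates for 5 days after pin-tool dosing on the day after seeding. Dosing used one drug alone or a fixed anchor-drug dose plus five library-drug doses (not always all listed) in √10 steps, and values are medians of duplicate plates.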

Venetoclax + Navitoclax = compound: CC1(C)CCC(CN2CCN(c3ccc(C(=O)NS(=O)(=O)c4ccc(NCC5CCOCC5)c([N+](=O)[O-])c4)c(Oc4cnc5[nH]ccc5c4)c3)CC2)=C(c2ccc(Cl)cc2)C1 [Venetoclax] + CC1(C)CCC(c2ccc(Cl)cc2)=C(CN2CCN(c3ccc(C(=O)NS(=O)(=O)c4ccc(N[C@H](CCN5CCOCC5)CSc5ccccc5)c(S(=O)(=O)C(F)(F)F)c4)cc3)CC2)C1 [Navitoclax] (partner 0.5 µM); experiment: as above
Outline: as §1

Cell Line	relative viability (Selumetinib + Foretinib; first compound 0.02 µM)	relative viability (Selumetinib + Foretinib; first compound 0.06325 µM)	relative viability (Selumetinib + Foretinib; first compound 0.2 µM)	relative viability (Selumetinib + Foretinib; first compound 0.6325 µM)	relative viability (Venetoclax + Navitoclax; first compound 0.01 µM)	relative viability (Venetoclax + Navitoclax; first compound 0.03162 µM)	relative viability (Venetoclax + Navitoclax; first compound 0.1 µM)	relative viability (Venetoclax + Navitoclax; first compound 0.3162 µM)	relative viability (Venetoclax + Navitoclax; first compound 1 µM)
NCI-H2342	0.922	1.09	0.961	0.981					
SK-MES-1	0.831	0.818	0.534	0.491	1.25	1.16	1.2	1.25	1.09
LCLC-97TM1	0.898	0.818	0.585	0.525		0.608	0.44	0.361	0.446
HCC-44					0.987	0.943	0.891	0.979	0.975
201T	0.977	0.978	1.05	0.874	1.17	1.24	1.27	1.19	1.21
HOP-62	1.06	1.02	0.807	0.504	0.988	1.17	1.09	1.13	1
NCI-H661	1.12	0.979	1.02	0.913					
NCI-H2087	0.982	0.718	0.507	0.304	1.01	0.982	0.921	0.942	0.974
NCI-H647	1.19	1.21	0.842	1.02	1.16	1.26	1.22	1.16	0.901
SW 1573	0.909	0.776	0.638	0.598	0.877	1.02	0.971	1.03	0.997
A-427	1.17	1.11	0.954	0.756	0.874	1.1	0.967	0.988	1.01
NCI-H520	0.746	0.759	1.02	0.758	1.14	1.27	1.06	1.2	0.962
NCI-H1755	0.874	0.807	0.824	0.847	1.01	0.988	0.96	0.999	0.925
NCI-H1975	0.992	1.09	1.03	0.724	1.15	1.15	1.05	1.21	1.11
Calu-6	0.817	0.702	0.515	0.383	0.716	0.934	0.851	0.91	0.832
SK-LU-1	0.762	0.778	0.711	0.449	0.502	0.994	0.945	0.729	0.804
EMC-BAC-2	0.882	0.972	0.85	0.875	1.09	1.17	1.14	1.15	1.07
LK-2	1.68	1.51	0.968	1.23	0.809	0.945	0.763	0.816	0.845
NCI-H23	0.952	0.916	0.654	0.612	0.869	0.774	0.774	0.82	0.704
NCI-H441	0.964	0.839	0.903	0.667	0.659	1.09	0.627	0.482	0.47
NCI-H2009	0.965	0.87	0.511	0.337	1.14	1.14	1.13	1.15	1.05
NCI-H1944	0.898	0.796	0.69	0.536	1.03	1.09	0.99	1.06	1.09
NCI-H1299	1.23	1.08	1.09	0.935	1.07	1.04	1.01	1.01	1
EPLC-272H	0.593	0.467	0.367	0.333		1.23	1.12	1.14	1.05
NCI-H3122	0.866	0.774	0.719	0.583	1.11	1.03	1.03	1.01	1.01
NCI-H2085	0.728	0.829	0.536	0.567	0.952	1.16	1.17	1.26	1.06

Cell Line	relative viability (Selumetinib + Foretinib; first compound 0.02 µM)	relative viability (Selumetinib + Foretinib; first compound 0.06325 µM)	relative viability (Selumetinib + Foretinib; first compound 0.2 µM)	relative viability (Selumetinib + Foretinib; first compound 0.6325 µM)	relative viability (Venetoclax + Navitoclax; first compound 0.01 µM)	relative viability (Venetoclax + Navitoclax; first compound 0.03162 µM)	relative viability (Venetoclax + Navitoclax; first compound 0.1 µM)	relative viability (Venetoclax + Navitoclax; first compound 0.3162 µM)	relative viability (Venetoclax + Navitoclax; first compound 1 µM)
HCC-366	0.866	0.865	0.755	0.645	1.04	1	1.01	0.987	0.993
HCC-78	0.516	0.435	0.401	0.449	0.97	0.895	0.688	0.755	0.84
COR-L23	0.999	1.01	0.933	0.934	0.996	1.07	0.947	0.947	0.86
HCC-827	0.942	0.983	0.989	0.86	1.02	0.996	1.04	1.04	1.01
NCI-H1437	1.33	1.3	1.17	0.708	1.07	1.09	1.04	1.04	0.977
PC-14	0.97	0.886	0.819	0.881	0.986	1.03	0.936	0.954	0.926
NCI-H2228	0.81	0.802	0.807	0.623	0.932	1.03	0.927	0.836	0.999
BEN	0.692	0.714	0.667	0.546	0.36	0.0558	0.072	0.0753	0.0581
LOU-NH91	0.87	0.859	0.834	0.738	0.594	0.832	0.676	0.77	0.659
EKVX	0.724	0.675	0.517	0.568	0.985	0.995	0.917	0.891	0.854
NCI-H1355	0.954	0.847	0.539	0.625	0.892	0.972	0.804	0.915	0.897
ABC-1	0.906	0.882	0.951	0.767					
NCI-H727	0.468	0.434	0.329	0.352	0.375	0.462	0.36	0.323	0.516
NCI-H1666	0.827	0.839	0.791	0.734	0.616	0.986	0.978	0.971	0.901
NCI-H2126	1.13	0.993	1.05	0.933	0.886	0.853	0.851	0.808	0.855
NCI-H1793	0.69	0.511	0.386	0.415	0.375	0.454	0.287	0.461	0.382
LCLC-103H	0.744	0.64	0.646	0.72					
COR-L 105	0.978	1.1	0.846	0.534	0.743	0.755	0.782	0.794	0.748
NCI-H1563	0.879	0.955	0.903	0.824					
HARA	0.905	0.726	0.71	0.592	0.996	1.17	1.1	1.11	1.15
NCI-H2023	0.709	0.811	0.6	0.572	0.984	0.987	0.924	0.96	0.86
NCI-H1792					0.649	0.71	0.696	0.671	0.601
IA-LM	0.949	0.837	0.576	0.403	0.84	0.899	0.807	0.763	0.662
LXF-289	0.939	0.867	0.738	0.737	0.926	0.988	0.952	0.868	0.829
ChaGo-K-1	0.833	0.924	0.906	0.769	1.02	1.24		1.09	1.06
NCI-H2347	0.93	0.704	0.451	0.421	0.793	0.876	0.807	0.855	0.819

Cell Line	relative viability (Selumetinib + Foretinib; first compound 0.02 µM)	relative viability (Selumetinib + Foretinib; first compound 0.06325 µM)	relative viability (Selumetinib + Foretinib; first compound 0.2 µM)	relative viability (Selumetinib + Foretinib; first compound 0.6325 µM)	relative viability (Venetoclax + Navitoclax; first compound 0.01 µM)	relative viability (Venetoclax + Navitoclax; first compound 0.03162 µM)	relative viability (Venetoclax + Navitoclax; first compound 0.1 µM)	relative viability (Venetoclax + Navitoclax; first compound 0.3162 µM)	relative viability (Venetoclax + Navitoclax; first compound 1 µM)
RERF-LC-KJ	0.87	0.901	0.853	0.819	0.994	0.961	0.794	1.08	0.89
NCI-H1650	0.992	0.888	0.842	0.928	1.14	1.3		1.02	0.968
NCI-H596	0.832	0.781	0.696	0.653	0.892	0.935	0.916	0.887	0.919
NCI-H1734	0.88	0.843	0.672	0.611	0.767	1	0.78	0.811	0.787
NCI-H1703	0.438	0.318	0.369	0.32	1.33	1.24	0.969	1.01	1.04
NCI-H1915	1.16	1.03	0.812	0.529	0.763	0.79	0.733	0.788	0.779
NCI-H838	0.907	0.915	0.859	0.796	1.21	1.14	1.1	1.11	1.11
HCC-15	0.777	0.637	0.439	0.293	0.674	0.707	0.635	0.621	0.588
NCI-H650	1.07	1.18	1.21	1.17					
NCI-H1651	0.758	0.731	0.67	0.673	1.06	0.964	0.964	1.06	1.09
NCI-H2405	1.05	0.983	0.909	0.545	0.865	1.02		0.941	0.91
A549	0.779	0.581	0.546	0.32	1.29	1.25	1.23	1.17	1.08
LU99A	0.898	0.729	0.83	0.699	0.783	0.936	0.708	0.833	0.741
H3255	0.867	0.921	0.457	0.739	0.54	0.573	0.433	0.618	0.498
NCI-H1993	0.663	0.744	0.745	0.671	0.971	0.904	0.944	0.962	0.891
NCI-H322M	0.853	0.782	0.704	0.757	1.25	1.11	1.11	1.35	1.16
NCI-H460	0.949	0.899	0.886	0.404	0.996	1.16	1.1	1.07	1.09
NCI-H2170	0.987	0.954	0.967	0.952	0.746	0.688	0.521	0.509	0.531
NCI-H1623	0.729	0.679	0.614	0.632					
SW 900	0.876	0.78	0.783	0.92					
NCI-H1395	0.959	0.978	0.928	0.94	1.15	1.12	1.16	1.13	1.55
LC-2-ad	0.828	0.722	0.643	0.533	0.441	0.4	0.531	0.52	0.466
NCI-H358	0.43	0.331	0.272	0.291					
PC-3 [JPC-3]	0.944	0.92	0.922	0.713	0.832	0.785	0.78	0.829	0.744
